{
  "source": "patent US20220265582A1",
  "about": "“EFFECTS OF MESCALINE AND OF MESCALINE ANALOGS (SCALINES) TO ASSIST PSYCHOTHERAPY” (Universitätsspital Basel, priority 2021, published 2022)",
  "key": {"healthy subjects [1]": {"system": "healthy subjects", "conditions": "100 μg dose; cited from earlier work"}, "healthy subjects [2]": {"system": "healthy subjects", "assay": "Visual Analog Scales (VAS) of acute subjective effects, Clinical Study I", "conditions": "for duration of subjective effects (VAS any drug effect): mescaline 300 mg, psilocybin 20 mg, LSD 100 μg oral"}, "healthy subjects [3]": {"system": "healthy subjects", "assay": "Adverse effects, list of complaints (LC), Clinical Study I", "format": "in vivo, human", "conditions": "for mean total LC score: six human volunteers, oral mescaline 300 mg, psilocybin 20 mg, LSD 100 μg, LC 12 hours after administration", "description": "Adverse effects (list of complaints): The list of complaints (LC) consists of 66 items offering a global score measuring physical and general discomfort (119). The LC list was administered 12 hours after administration of the drug with reference to complaints throughout the entire session."}, "5-HT2A receptor": {"biological_target": "5-HT2A receptor (Homo sapiens, UniProt P28223)", "sequence (P28223 whole entry)": "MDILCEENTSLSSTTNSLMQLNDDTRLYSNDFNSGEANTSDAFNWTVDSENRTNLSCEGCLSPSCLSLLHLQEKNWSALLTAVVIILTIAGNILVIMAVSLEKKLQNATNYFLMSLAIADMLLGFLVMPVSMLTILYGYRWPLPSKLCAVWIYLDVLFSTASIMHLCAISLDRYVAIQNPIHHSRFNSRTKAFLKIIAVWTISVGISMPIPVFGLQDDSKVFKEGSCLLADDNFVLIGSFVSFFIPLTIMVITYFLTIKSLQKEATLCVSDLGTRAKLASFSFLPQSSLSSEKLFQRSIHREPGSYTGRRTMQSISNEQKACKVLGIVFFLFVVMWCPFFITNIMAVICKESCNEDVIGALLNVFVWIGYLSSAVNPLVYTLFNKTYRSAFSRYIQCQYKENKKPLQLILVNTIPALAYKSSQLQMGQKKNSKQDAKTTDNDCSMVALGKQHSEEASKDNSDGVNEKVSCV", "conditions": "FIG. 2 (62); cited from earlier work"}, "[4]": {"conditions": "LSD vs. MDMA (45); cited from earlier work"}, "healthy subjects [5]": {"system": "healthy subjects", "assay": "5-Dimensional Altered States of Consciousness (5D-ASC) scale, Clinical Study I", "format": "in vivo, human", "conditions": "6 subjects", "description": "5-Dimensional Altered States of Consciousness (5D-ASC): The 5-dimensional Altered States of Consciousness (5D-ASC) Scale is a visual analog scale consisting of 94 items (117, 118). The instrument contains five main scales (FIG. 6A) and 11 newer subscales (FIG. 6B) assessing mood, anxiety, derealization, depersonalization, changes in perception, auditory alterations, and reduced vigilance. The scale is well-validated (118). The 5D-ASC scale was administered once at the end of the session and subjects were instructed to retrospectively rate peak alterations that have been experienced during the study session. Each item of the scale is scored on a 0-100 mm VAS. The attribution of the individual items to the subscales of the 5D-ASC was analyzed according to (117, 118) and as shown in FIGS. 6A-6B. The scale was be administered once at the end of each test session."}, "healthy male subjects": {"system": "healthy male subjects", "conditions": "cited from earlier work; for psychoactive or cardiostimulant properties of metabolites administered to humans: in vivo"}, "humans": {"system": "humans", "conditions": "cited from earlier work"}, "5-HT transporter (SERT)": {"biological_target": "5-HT transporter (SERT) (Homo sapiens, UniProt P31645)", "sequence (P31645 whole entry)": "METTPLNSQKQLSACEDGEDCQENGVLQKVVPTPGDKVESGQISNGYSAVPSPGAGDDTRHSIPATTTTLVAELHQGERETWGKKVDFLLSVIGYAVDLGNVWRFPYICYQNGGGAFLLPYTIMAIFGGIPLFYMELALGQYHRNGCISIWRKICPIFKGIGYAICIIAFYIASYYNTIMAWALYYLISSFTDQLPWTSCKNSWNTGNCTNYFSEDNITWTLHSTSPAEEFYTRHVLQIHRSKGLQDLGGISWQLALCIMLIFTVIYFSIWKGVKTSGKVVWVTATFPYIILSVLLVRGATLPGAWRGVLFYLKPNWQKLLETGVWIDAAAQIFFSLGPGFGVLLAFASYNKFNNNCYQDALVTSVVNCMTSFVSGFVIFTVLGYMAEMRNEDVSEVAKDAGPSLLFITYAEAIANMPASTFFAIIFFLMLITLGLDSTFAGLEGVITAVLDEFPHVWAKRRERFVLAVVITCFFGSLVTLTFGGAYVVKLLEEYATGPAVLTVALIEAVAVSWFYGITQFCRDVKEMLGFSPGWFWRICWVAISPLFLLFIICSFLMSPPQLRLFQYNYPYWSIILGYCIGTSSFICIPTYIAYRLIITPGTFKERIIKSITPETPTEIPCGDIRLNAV", "conditions": "cited from earlier work"}, "rodent": {"system": "rodent", "conditions": "rodent tests (49); cited from earlier work"}, "healthy subjects [6]": {"system": "healthy subjects", "conditions": "mescaline sulfate 500 mg, 12 subjects, MDE, 14 subjects, cited from earlier work"}, "D2 receptors": {"biological_target": "D2 receptors (Homo sapiens, UniProt P14416)", "sequence (P14416 whole entry)": "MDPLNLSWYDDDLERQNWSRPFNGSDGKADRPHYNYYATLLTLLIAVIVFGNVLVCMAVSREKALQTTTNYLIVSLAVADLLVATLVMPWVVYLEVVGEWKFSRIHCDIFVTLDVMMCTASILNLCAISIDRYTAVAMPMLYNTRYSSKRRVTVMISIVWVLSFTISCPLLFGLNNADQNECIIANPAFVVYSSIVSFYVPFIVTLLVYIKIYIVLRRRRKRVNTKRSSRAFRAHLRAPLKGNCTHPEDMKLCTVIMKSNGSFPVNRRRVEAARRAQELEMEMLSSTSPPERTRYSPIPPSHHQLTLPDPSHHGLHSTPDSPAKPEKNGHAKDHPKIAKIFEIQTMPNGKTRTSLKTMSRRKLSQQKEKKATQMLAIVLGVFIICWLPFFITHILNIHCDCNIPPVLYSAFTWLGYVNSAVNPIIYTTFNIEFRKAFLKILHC", "conditions": "FIG. 3; cited from earlier work"}, "healthy subjects [7]": {"system": "healthy subjects", "assay": "Autonomic measures (blood pressure, heart rate, body temperature), Clinical Study I", "format": "in vivo, human", "description": "Autonomic measures: Blood pressure, heart rate, and body temperature were recorded at baseline and repeatedly throughout the session. Blood pressure (systolic and diastolic) and heart rate were measured with an automatic oscillometric device. Body temperature was measured with an ear thermometer."}, "[8]": {"conditions": "six healthy volunteers, doses used"}, "[9]": {"conditions": "500 mg mescaline hydrochloride orally"}},
  "note": "Where two headings read alike, the source gives them in different places.",
  "data": [
    {"smiles": "CCN(CC)C(=O)[C@@H]1C=C2c3cccc4[nH]cc(c34)C[C@H]2N(C)C1", "note": "[LSD, lysergic acid diethylamide, reference compound]", "values": [
      {"measurement": "duration of effects", "setting": "healthy subjects [1]", "value": 8, "unit": "h"},
      {"measurement": "time of peak responses", "setting": "healthy subjects [1]", "value": 3, "unit": "h"},
      {"measurement": "area under the effect-time curve, visual and auditory perception (VAS)", "setting": "healthy subjects [2]; doses used", "value": "greater"},
      {"measurement": "bad drug effect (VAS) peaks", "setting": "healthy subjects [2]; doses used", "value": "peaks lower for LSD and mescaline compared with psilocybin"},
      {"measurement": "ego-dissolution (VAS)", "setting": "healthy subjects [2]; doses used", "value": "mostly increased"},
      {"measurement": "stimulated (VAS)", "setting": "healthy subjects [2]; doses used", "value": "greater stimulation than mescaline"},
      {"measurement": "synesthesia, \"sounds influenced what I saw\" (VAS)", "setting": "healthy subjects [2]; doses used", "value": "highest ratings"},
      {"measurement": "visual and auditory perception change (VAS), ratings/peak", "setting": "healthy subjects [2]; doses used", "value": "highest ratings"},
      {"measurement": "area under the effect over time curve (VAS any/good drug effect)", "setting": "healthy subjects [2]; [8]", "value": "greater"},
      {"measurement": "duration of subjective effects (VAS any drug effect)", "setting": "healthy subjects [2]; six healthy volunteers", "value": "lasted similarly long"},
      {"measurement": "mean total LC score", "setting": "healthy subjects [3]", "value": 5.4},
      {"measurement": "binding potency at the 5-HT2A receptor (rank)", "setting": "5-HT2A receptor", "value": "binds most potently"},
      {"measurement": "AED score", "setting": "[4]", "value": 26},
      {"measurement": "OB score", "setting": "[4]", "value": 43},
      {"measurement": "VR score", "setting": "[4]", "value": 50},
      {"measurement": "overall peak effects (total 3D-OAV scores)", "setting": "healthy subjects [5]; LSD 100 μg, psilocybin 20 mg", "value": "equally strong overall peak effects"}
    ]},
    {"smiles": "CNC(C)Cc1ccc2c(c1)OCO2", "note": "(stereo not drawn) [MDMA, 3,4-methylendioxymethamphetamine]", "values": [
      {"measurement": "AED score", "setting": "[4]", "value": 1.3},
      {"measurement": "OB score", "setting": "[4]", "value": 9.3},
      {"measurement": "VR score", "setting": "[4]", "value": 4.1}
    ]},
    {"smiles": "COc1cc(CC(=O)O)cc(OC)c1OC", "note": "[TMPA, 3,4,5-trimethoxyphenylacetic acid]", "values": [
      {"measurement": "share excreted in urine as this species after mescaline", "setting": "healthy male subjects; [9]", "value": "27-30%"},
      {"measurement": "psychoactive or cardiostimulant properties of metabolites administered to humans", "setting": "healthy male subjects", "value": "not to have psychoactive or cardiostimulant properties"}
    ]},
    {"smiles": "COc1cc(CCN)cc(OC)c1OC", "note": "[mescaline, 3,4,5-trimethoxyphenethylamine]", "values": [
      {"measurement": "area under the effect-time curve, visual and auditory perception (VAS)", "setting": "healthy subjects [2]; doses used", "value": "similar"},
      {"measurement": "bad drug effect (VAS) peaks", "setting": "healthy subjects [2]; doses used", "value": "peaks lower for LSD and mescaline compared with psilocybin"},
      {"measurement": "changed time perception (VAS)", "setting": "healthy subjects [2]; doses used", "value": "trends toward lower changes"},
      {"measurement": "ego-dissolution (VAS)", "setting": "healthy subjects [2]; doses used", "value": "lower ratings"},
      {"measurement": "nausea (VAS)", "setting": "healthy subjects [2]; doses used", "value": "lowest nausea ratings"},
      {"measurement": "openness (VAS)", "setting": "healthy subjects [2]; doses used", "value": "smallest peak effect but a longer lasting effect compared with psilocybin"},
      {"measurement": "synesthesia, \"sounds influenced what I saw\" (VAS)", "setting": "healthy subjects [2]; doses used", "value": "lower ratings"},
      {"measurement": "visual and auditory perception change (VAS), ratings/peak", "setting": "healthy subjects [2]; doses used", "value": "lower peak effects than both psilocybin and LSD"},
      {"measurement": "talkative (VAS)", "setting": "healthy subjects [2]; first hours", "value": "longest effect"},
      {"measurement": "area under the effect over time curve (VAS any/good drug effect)", "setting": "healthy subjects [2]; [8]", "value": "similar"},
      {"measurement": "peak effect (VAS any/good drug effect)", "setting": "healthy subjects [2]; [8]", "value": "lower than those of psilocybin and LSD"},
      {"measurement": "time to peak of subjective effects (VAS any/good drug effect)", "setting": "healthy subjects [2]; [8]", "value": "took longer to peak compared to those of psilocybin and LSD"},
      {"measurement": "duration of subjective effects (VAS any drug effect)", "setting": "healthy subjects [2]; six healthy volunteers", "value": "lasted similarly long"},
      {"measurement": "overall tolerability of acute administration", "setting": "healthy subjects [3]; doses used", "value": "overall similar to that of LSD or psilocybin"},
      {"measurement": "mean total LC score", "setting": "healthy subjects [3]", "value": 8.8},
      {"measurement": "dose to induce a full psychedelic experience", "setting": "humans; (51, 86)", "value": "about 300 mg"},
      {"measurement": "potency relative to LSD (times less potent)", "setting": "humans; (86)", "value": "1000-3000 times"},
      {"measurement": "potency relative to psilocybin (times less potent)", "setting": "humans; (86)", "value": "around 30 times"},
      {"measurement": "subjective effect duration", "setting": "humans; moderate dose (86)", "value": "10 to 12", "unit": "h"},
      {"measurement": "duration of subjective effects", "setting": "healthy male subjects; [9]", "value": "12 to 14", "unit": "h"},
      {"measurement": "onset of subjective effects", "setting": "healthy male subjects; [9]", "value": "≤ 30", "unit": "min"},
      {"measurement": "share excreted in urine as this species after mescaline", "setting": "healthy male subjects; [9]", "value": "55-60%"},
      {"measurement": "time of peak subjective effects", "setting": "healthy male subjects; [9]", "value": 4, "unit": "h"},
      {"measurement": "onset of subjective effects", "setting": "healthy male subjects; 500 mg mescaline hydrochloride orally, listed as mescaline hydrochloride", "value": "approximately 30 min"},
      {"measurement": "delay of the peak subjective response compared with the plasma peak", "setting": "healthy male subjects; 500 mg orally", "value": "about 2 hours"},
      {"measurement": "radioactivity administered excreted within 24 hours", "setting": "healthy male subjects; 500 mg orally", "value": 87, "unit": "%"},
      {"measurement": "radioactivity administered excreted within 48 h", "setting": "healthy male subjects; 500 mg orally", "value": 92, "unit": "%"},
      {"measurement": "half-life", "setting": "healthy male subjects; mescaline hydrochloride 500 mg orally, radioactivity ingested as mescaline", "value": "approximately six"},
      {"measurement": "total alterations of consciousness (total 3D-OAV score) relative to LSD (100 μg) or psilocybin (20 mg)", "setting": "healthy subjects [5]; mescaline 300 mg oral, peak responses rated 12 hours after administration", "value": "approximately 50%"},
      {"measurement": "interaction with the SERT", "setting": "5-HT transporter (SERT)", "value": "do not interact with the SERT"},
      {"measurement": "abuse-related rewarding effects", "setting": "rodent", "value": "no abuse-related rewarding effects"},
      {"measurement": "average APZ score AIA (anxious ego-dissolution)", "setting": "healthy subjects [6]", "value": 7.1},
      {"measurement": "average APZ score VUS (visionary restructuralization)", "setting": "healthy subjects [6]", "value": 7.4},
      {"measurement": "average APZ score OSE (oceanic boundlessness)", "setting": "healthy subjects [6]; indirect comparison", "value": 6.2},
      {"measurement": "affinity for D2 receptors", "setting": "D2 receptors", "value": "no affinity"},
      {"measurement": "increases in blood pressure, heart rate and body temperature after mescaline", "setting": "healthy subjects [7]; 6 subjects, mescaline 300 mg", "value": "tended to be attenuated compared with both psilocybin and LSD"},
      {"measurement": "thermogenic effects", "setting": "healthy subjects [7]; Example 1", "value": "reduced thermogenic effects of mescaline compared to psilocybin"},
      {"measurement": "effects on heart rate", "setting": "healthy subjects [7]; doses used, not statistically confirmed", "value": "tended to be lower than those of psilocybin"}
    ]},
    {"smiles": "CN(C)CCc1c[nH]c2cccc(OP(=O)(O)O)c12", "note": "[psilocybin, reference compound]", "values": [
      {"measurement": "nausea (VAS)", "setting": "healthy subjects [2]; doses used", "value": "highest"},
      {"measurement": "mean total LC score", "setting": "healthy subjects [3]", "value": 6.8},
      {"measurement": "increase in blood pressure and body temperature compared with the other active substances", "setting": "healthy subjects [7]; 6 subjects", "value": "more pronounced and shorter-lasting increase"}
    ]},
    {"smiles": "COc1cc(CCNC(C)=O)cc(OC)c1OC", "note": "[NAM, N-acetyl-mescaline]", "values": [
      {"measurement": "share excreted in urine as this species after mescaline", "setting": "healthy male subjects; [9]", "value": 0.1, "unit": "%"},
      {"measurement": "psychoactive or cardiostimulant properties of metabolites administered to humans", "setting": "healthy male subjects", "value": "not to have psychoactive or cardiostimulant properties"}
    ]},
    {"smiles": "CN(C)CCc1c[nH]c2cccc(O)c12", "note": "[Psilocin, reference compound]", "values": [
      {"measurement": "interaction with the SERT", "setting": "5-HT transporter (SERT)", "value": "inhibits the 5-HT transporter (SERT)"}
    ]},
    {"smiles": "COc1cc(CCNC(C)=O)cc(O)c1OC", "note": "[N-acetyl-(3,4,dimethoxy-5-hydroxyphenylethalymine]", "values": [
      {"measurement": "share excreted in urine as this species after mescaline", "setting": "healthy male subjects; [9]", "value": 5, "unit": "%"}
    ]}
  ]
}
